In the NIST ThermoML archive (doi:10.1016/j.tca.2008.03.014):
Numbers after ± are expanded uncertainties.

Settings: Crystal; DTA

| SMILES | Normal melting temperature [°C] |
| --- | --- |
| [F-].[Rb+] [rubidium fluoride (RbF)] | 790.1 ± 1 |
| [I-].[Rb+] [rubidium iodide (RbI)] | 650.00 ± 1 |
